Patent publication US11628159B2, “Cell-protective compounds and their use” (ETH ZURICH, priority 2017, dated 2023)

Legend:
[1] = tested on: GRK2-mediated phosphorylation of Srsf1; assay: Cardiac Srsf1 phosphorylation under basal conditions in non-transgenic B6 mice after short-term treatment; format: in vivo, mouse; settings: 10 mg/kg i.p., 5 h, immunoblot, relative to vehicle
Protocol: A, The GRK2-mediated phosphorylation of Srsf1 was determined by immunoblot in cardiac lysates prepared from hearts of non-transgenic B6 mice after treatment (i.p.) for 5 h with 10 mg/kg of 1-(1,3-benzodioxol-5-yl)-4-(cyclopropane-carbonyl)-3-hydroxy-2-phenyl-2H-pyrrol-5-one (“Compound-1”), 4-(1,3-benzodioxol-5-yl)pyrimidine (“Compound-4”), 1-(1,3-benzodioxol-5-ylmethyl)-5-(4-fluorophenyl)-2-methyl-pyrrole-3-carboxamide (“Compound-2”), or (4R)-N3-(1,3-benzodioxol-5-ylmethyl)-N4-[[3-(trifluoromethyl)phenyl]-methyl]pyrrolidine-3,4-dicarboxamide (“Compound-5”) relative to vehicle-treated B6 controls (“con”). […] B, Left panel: The AAC-induced cardiac p-Srsf1 content was determined in cardiac lysates from B6 mice with AAC after treatment for 7 days with 5 mg/kg/d of 1-(1,3-benzodioxol-5-yl)-4-(cyclopropane-carbonyl)-3-hydroxy-2-phenyl-2H-pyrrol-5-one (“Compound-1”) or (4R)-N3-(1,3-benzodioxol-5-ylmethyl)-N4-[[3-(trifluoromethyl)phenyl]-methyl]pyrrolidine-3,4-dicarboxamide (“Compound-5”) relative to vehicle-treated B6 controls with AAC (“AAC-con”). […] Right and lower panels: Cardiac function parameters were determined by echocardiography in B6 mice with AAC after treatment for 7 days with “Compound-1” or “Compound-5” relative to vehicle-treated B6 controls with AAC ((±s.d.; n=5 (A) and n=3 (B); Dunnett's Multiple Comparison Test vs. con (A) or AAC-con (B)).

[2] = tested on: GRK2-mediated phosphorylation of SRSF1/Srsf1; assay: Immunoblot of SRSF1/Srsf1 phosphorylation in isolated neonatal cardiomyocytes from Tg-SRSF1 mice; format: cell-based, mouse; settings: 10 microM, 60 h, relative to vehicle
Protocol: (§1) A, The GRK2-mediated phosphorylation of SRSF1/Srsf1 was determined by immunoblot in lysates from isolated neonatal cardiomyocytes from Tg-SRSF1 mice after incubation for 60 h with 10 microM of paroxetine, 1-(1,3-benzodioxol-5-yl)-4-(cyclopropane-carbonyl)-3-hydroxy-2-phenyl-2H-pyrrol-5-one (“Compound-1”) or 4-(1,3-benzodioxol-5-yl)pyrimidine (“Compound-4”) relative to vehicle-treated control (“C”) cardiomyocytes. B, Immunoblot detection of GRK2-mediated phosphorylation of SRSF1 (pSRSF1) was performed with lysates from HEK (human embryonic kidney) cells incubated for 60 h with 10 microM of 4-(1,3-benzodioxol-5-yl)pyrimidine (“Compound-4”), 1-(1,3-benzodioxol-5-ylmethyl)-5-(4-chlorophenyl)-2-methyl-pyrrole-3-carboxamide (“Compound-24”) or (4R)-N3-(1,3-benzodioxol-5-ylmethyl)-N4-[[3-(trifluoromethyl)phenyl]-methyl]pyrrolidine-3,4-dicarboxamide (“Compound-5”) relative to vehicle-treated controls (“C”).
(§2) Briefly, the hearts were dissected out from 2-3 day-old mice, atria and aorta were removed, and the hearts were transferred into sterile buffer A (137 mM NaCl, 5.36 mM KCl, 0.81 mM MgSO4, 5.55 mM dextrose, 0.44 mM KH2PO4, 0.34 mM Na2HPO4, 20 mM HEPES, 100 U/ml penicillin, 100 microg/ml streptomycin, pH 7.4). […]

[3] = tested on: GRK2-mediated phosphorylation of SRSF1; assay: Immunoblot of SRSF1 phosphorylation (pSRSF1) in HEK (human embryonic kidney) cells; format: cell-based; settings: 10 microM, 60 h, relative to vehicle
Protocol: as §1, §2

| SMILES | GRK2-mediated Srsf1 phosphorylation under basal conditions in the hearts of non-transgenic B6 mice [1] | SRSF1/Srsf1 phosphorylation in isolated Tg-SRSF1 cardiomyocytes [2] | SRSF1 phosphorylation in human kidney cells [3] |
| --- | --- | --- | --- |
| O=C(C1=C(O)C(c2ccccc2)N(c2ccc3c(c2)OCO3)C1=O)C1CC1 (centres unmarked) [Compound-1, 1-(1,3-benzodioxol-5-yl)-4-(cyclopropane-carbonyl)-3-hydroxy-2-phenyl-2H-pyrrol-5-one] | decreased | decreased |  |
| c1cc(-c2ccc3c(c2)OCO3)ncn1 [Compound-4, 4-(1,3-benzodioxol-5-yl)pyrimidine] | decreased | decreased | inhibited |
